Assay [1] deals with T1, HIV protease (Human immunodeficiency virus type 1 group M subtype B, UniProt P04585).
T1 construct: and purified protease
Description: HIV Protease Assay. The class given is biochemical. Conditions: pH 5.5, 10 μM inhibitor, 4% DMSO, 450 μM substrate, pH 5.5, 30 minutes at 37° C., RP-HPLC; read-out: HIV Protease % Inhibition at 10 μM. Summed up:
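Purified protease cleaved 450 μM octapeptide substrate in 50 mM sodium acetate pH 5.5 with 100 μg/ml BSA for 30 minutes at 37° C; product analyzed by reverse-phase HPLC at UV220 after H3PO4 quench. Inhibitors tested at final 10 μM with 4% DMSO.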

The test system of assay [2] is RF strain of HIV (CEM-SS cells). Description: Cell Culture Anti-HIV Activity (cell viability, formazan). The class given is cell-based. The conditions noted are these: Human immunodeficiency virus 1, CEM-SS, 144 h, CEM-SS cells, RF strain of HIV, multiplicity of infection 0.04, 6 days at 37° C., 450 nm; read-out: HIV (CEM Cells) IC50. An outline of the steps:
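CEM-SS cells (5000/well) infected with HIV RF at MOI 0.04, exposed to half-log serial compound dilutions, incubated 6 days at 37° C. Viability read by tetrazolium reduction to formazan, absorbance 450 nm. IC50 is the concentration raising formazan in infected cells to 50% of uninfected, drug-free cells.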

Where a name gives a salt, the structure may show the parent alone.

Regarding `CC(C)[C@H](NC(=O)OCc1nc2ccccc2n1C)C(=O)N[C@@H](Cc1ccccc1)[C@H](O)CNC[C@@H](O)[C@H](Cc1ccccc1)NC(=O)OC(C)(C)C` [Compound 170, [S-[1R*,2S*(2S*,3R*)]-N-[3-[[3-[[(1 l-Dimethylethoxy)carbonyl]amino]-2-hydroxy-4-phenylbutyl]amino]-2-hydroxy-1-(phenylmethyl)-propyl]-N^2-[[(1-methyl-1H-benzimidazol-2-yl)-methoxy]carbonyl]-L-valinamide], the inhibition at 10 µM in assay [1] is 100%. The IC50 in assay [2] turned out to be 100 nM.

In the case of `CC(C)[C@H](NC(=O)N(C)Cc1ccccn1)C(=O)N[C@@H](Cc1ccccc1)[C@H](O)CNC[C@@H](O)[C@H](Cc1ccccc1)NC(=O)OC(C)(C)C` [Compound 76, [S-[1R*,2S*(2S*,3R*)]]-N-[3-[[3-[[(1,1-Dimethylethoxy)carbonylamino]-2-hydroxy-4-phenylbutyl]amino]-2-hydroxy-1-(phenylmethyl)propyl]-N^2 [[methyl(2-pyridinyl-methyl)amino]carbonyl]-L-valinamide], the inhibition at 10 µM in assay [1] was 100%. The IC50 in assay [2] turned out to be 600 nM.

For the compound `C[C@H](NC(=O)OCc1ccccc1)C(=O)N[C@@H](Cc1ccccc1)[C@H](O)CNC[C@@H](O)[C@H](Cc1ccccc1)NC(=O)OC(C)(C)C` (relative stereo) [Compound 243, [1R*,2S*(2S*,3R*)]-N-[3-[[3-[[(1,1-Dimethylethoxy)carbonyl]amino]-2-hydroxy-4-phenylbutyl]-2-hydroxy-1-(phenylmethyl)propyl]-N^2-[(phenylmethoxy)carbonyl]-L-alaninamide], the inhibition at 10 µM in assay [1] amounted to 99%. Further, the IC50 in assay [2] turned out to be 80 nM.

For `CC(C)[C@H](NC(=O)OCc1ccccc1)C(=O)N(C)[C@@H](Cc1ccccc1)[C@H](O)CNC[C@@H](O)[C@H](Cc1ccccc1)NC(=O)OC(C)(C)C` [Compound 134, [S-[1R*,2S*(2S*,3R*)]]-N-[3-[[3-[[(1,1-Dimethylethoxy)carbonyl]amino]-2-hydroxy-4-phenylbutyl]amino]-2-hydroxy-1-(phenylmethyl)-propyl]-N-methyl-N^2-[(phenylmethoxy)carbonyl]-L-valinamide], the inhibition at 10 µM in assay [1] came out at 87%. In addition, the IC50 in assay [2] is above 5000 nM.

On to `CC(C)[C@H](NC(=O)[C@@H](N)CO)C(=O)N[C@@H](Cc1ccccc1)[C@H](O)CNC[C@@H](O)[C@H](Cc1ccccc1)NC(=O)OC(C)(C)C` (relative stereo) [Compound 212, [1R*,2S*(2S*,3R*)]-N-[N-[3-[[3-[[(1,1-Dimethylethoxy)carbonyl]amino]-2-hydroxy-4-phenylbutyl]amino]-2-hydroxy-1-(phenylmethyl)propyl]-L-valyl]-L-serinamide, fumarate (2:3) salt], for which, in assay [1], the inhibition at 10 µM was 99%. Besides, in assay [2], the IC50 was found to be 3800 nM.

With `CC(C)(C)OC(=O)N[C@@H](Cc1ccccc1)[C@H](O)CNC[C@@H](O)[C@H](Cc1ccccc1)NC(=O)[C@@H](NC(=O)OCc1nc(-c2ccccc2)co1)C(C)(C)C` [Compound 345, [S-(1R*,2S*(2S*,3R*)]]-[2,2-Dimethyl-1-[[[3-[[3-[[1,1-dimethylethoxy)-carbonyl]amino]-2-hydroxy-4-phenylbutyl]amino]-2-hydroxy-1-(phenylmethyl)propyl]amino]-carbonyl]propyl]carbamic acid, (4-phenyl-2-oxazolyl)methyl ester], the inhibition at 10 µM in assay [1] came to 99%. In assay [2], the IC50 came out at 330 nM.

For the compound `CC(C)[C@H](NC(=O)c1ccc2ccccc2n1)C(=O)N[C@@H](Cc1ccccc1)[C@H](O)CNC[C@@H](O)[C@H](Cc1ccccc1)NC(=O)OC(C)(C)C` [Compound 80, [S-[1R*,2S*(2S*,3R*)]]-N-[3-[[3-[[(1,1-Dimethylethoxy)carbonyl]amino]-2-hydroxy-4-phenylbutyl]amino]-2-hydroxy-1-(phenylmethyl)propyl]-N2-(2-quinolinylcarbonyl)-L-valinamide], in assay [1], the inhibition at 10 µM was 98%. Besides, in assay [2], the concentration for half-maximal inhibition (IC50) amounted to 300 nM.

Regarding `CC(C)(C)OC(=O)N[C@@H](Cc1ccccc1)[C@H](O)CNC[C@@H](O)[C@H](Cc1ccccc1)NC(=O)OC1(C)CCC1` [Compound 160, [1S-(1R*,2S*)]-[Iminobis[2-hydroxy-1-(phenylmethyl)-3,1-propanediyl]]bis[carbamic acid], 1,1-dimethylethyl-1-methylcyclobutyl ester], the inhibition at 10 µM in assay [1] was found to be 99%. Besides, the IC50 in assay [2] turned out to be 80 nM.

`CC(C)[C@H](NC(=O)OCc1ccccn1)C(=O)N[C@@H](Cc1ccccc1)[C@H](O)CNC[C@@H](O)[C@H](Cc1ccccc1)NC(=O)OC(C)(C)C` [Compound 70, [S-[1R*,2S*(2S*,3R*)]]-N-[3-[[3-[[(1,1-Dimethylethoxy)carbonyl]amino]-2-hydroxy-4-phenylbutyl]amino]-2-hydroxy-1-(phenylmethyl)-propyl]-N^2-(2-pyridinylmethoxy)carbonyl]-L-valinamide]: the inhibition at 10 µM in assay [1] was determined as 100%. In addition, in assay [2], the IC50 stood at 500 nM.

Turning to `CC(C)(C)OC(=O)N[C@@H](Cc1ccccc1)[C@H](O)CNC[C@@H](O)[C@H](Cc1ccccc1)NC(=O)[C@H](Cc1ccccc1)NC(=O)OCc1ccccc1` (relative stereo) [Compound 55, [1R*,2S*(2S*,3R*)]-N-[[3-[[(1,1-Dimethylethoxy)carbonyl]amino]-2-hydroxy-4-phenylbutyl]amino]-2-hydroxy-1-(phenylmethyl)propyl]-N^2-[(phenylmethoxy)carbonyl]-L-phenylalaninamide], in assay [1], the inhibition at 10 µM was found to be 91%. The IC50 in assay [2] stood at 700 nM.

On to `CC(C)[C@H](NC(=O)CCc1c[nH]c2ccccc12)C(=O)N[C@@H](Cc1ccccc1)[C@H](O)CNC[C@@H](O)[C@H](Cc1ccccc1)NC(=O)OC(C)(C)C` (relative stereo) [Compound 260, [1R*,2S*(2S*,3R*)]-N-[3-[[3-[[(1,1-Dimethylethoxy)carbonyl]amino]-2-hydroxy-4-phenylbutyl]amino]-2-hydroxy-1-(phenylmethyl)propyl]-N^2-[3-(1H-indol-3-yl)-1-oxo-propyl]-L-valinamide], for which the inhibition at 10 µM in assay [1] was 100%. Further, the IC50 in assay [2] stood at 290 nM.

Regarding `COCCOc1ccc(C[C@H](NC(=O)OC(C)(C)C)[C@H](O)CNC[C@@H](O)[C@H](Cc2ccccc2)NC(=O)OC(C)(C)C)cc1` [Compound 224, [1S-[1R*,2S*(2S*,3R*)]]-[3-[[3-[[(1,1-Dimethylethoxy)carbonyl]amino]-2-hydroxy-4-[4-(2-methoxyethoxy)phenyl]butyl]amino]-2-hydroxy-1-(phenylmethyl)propyl]carbamic acid, 1,1-dimethylethyl ester], the inhibition at 10 µM in assay [1] was found to be 98%. In assay [2], the IC50 came out at 40 nM.

On to `CC(C)(C)OC(=O)N[C@@H](Cc1ccccc1)[C@H](O)CNC[C@@H](O)[C@H](Cc1ccccc1)NC(=O)OC(C)(C)[C@H](O)CO` [Compound 228, [1S-(1R*,2S*),(S*)]-[Iminobis[2-hydroxy-1-(phenylmethyl)-3,1-propanediyl]]biscarbamic acid, 2,3-dihydroxy-1,1-dimethylpropyl 1,1-dimethylethyl ester], for which, in assay [1], the inhibition at 10 µM is 98%. For the same compound, the half-inhibitory concentration (IC50) in assay [2] was found to be 700 nM.

In the case of `CC(C)(C)OC(=O)N[C@@H](Cc1ccccc1)[C@H](O)CNC[C@@H](O)[C@H](Cc1ccccc1)NC(=O)C(OCCCc1nc2ccccc2[nH]1)C(C)(C)C` (stereo partly drawn) [Compound 238, [1S-[1R*,2S*(2S*,3R*)]]-[3-[[3-[[2-[3-(2-Benzimidazolyl)propoxy]-3,3-dimethyl-1-oxobutyl]amino]-2-hydroxy-4-phenylbutyl]amino]-2-hydroxy-1-(phenylmethyl)propyl]carbamic acid, 1,1-dimethylethyl ester], the inhibition at 10 µM in assay [1] stood at 64%. Moreover, the IC50 in assay [2] stood at 2300 nM.

As to `CC(C)(C)OC(=O)N[C@@H](Cc1ccccc1)[C@H](O)CNC[C@@H](O)[C@H](Cc1ccccc1)NC(=O)c1ccc2ccccc2c1` [Compound 64, [1S-[1R*,2S*(2S*,3R*)]]-[2-Hydroxy-3-[[2-hydrox-3-[(2-naphthalenyl-carbonyl)amino]-4-phenylbutyl]amino]-1-(phenylmethyl)propyl]carbamic acid, 1,1-dimethylethyl ester], in assay [1], the inhibition at 10 µM was determined as 72%. For the same compound, the IC50 in assay [2] was above 5000 nM.

On to `CC(C)(C)OC(=O)N[C@@H](Cc1ccccc1)[C@H](O)CNC[C@@H](O)[C@H](Cc1ccccc1)NC(=O)[C@H](CC(N)=O)NC(=O)OCc1ccccc1` [Compound 53, [1S-[1R*,2S*(2S*3R*)]]-N-[3-[[3[[(1,1-Dimethylethoxy)-carbonyl]amino]-2-hydroxy-4-phenylbutyl]amino]-2-hydroxy-1-(phenylmethyl)propyl]-N^2 [(phenylmethoxy)-carbonyl]-L-aspartamide], for which the inhibition at 10 µM in assay [1] amounted to 99%. In addition, in assay [2], the IC50 was found to be 540 nM.

For `CC(C)(C)OC(=O)N[C@@H](Cc1ccccc1)[C@H](O)CNC[C@@H](O)[C@H](Cc1ccc(OCCOc2cccnc2)cc1)NC(=O)OC(C)(C)C` [Compound 304, [1S-[1R*,2S* (2S*, 3R*)]]-[3-[[3-[[(1,1-Dimethylethoxy)carbonyl]amino]-2-hydroxy-4-[4-[2-(3-pyridinyloxy)ethoxylphenyl]butyl]amino]-2-hydroxy-1-(phenylmethyl)propyl]carbamic acid, 1,1-dimethylethyl ester], the inhibition at 10 µM in assay [1] stood at 99%. In addition, in assay [2], the IC50 is 30 nM.

The values above are taken from patent US5760036A, “Aminediol protease inhibitors” (E. R. Squibb & Sons, Inc., priority 1995, dated 1998).
